Reference: publication PMC7985445, “Characterization of Plasmodium falciparum Pantothenate Kinase and Identification of Its Inhibitors From Natural Products” (Frontiers in Cellular and Infection Microbiology, 2021)
Where “and” joins values, the source holds several entries; their conditions need not be identical. Identical values can stand only once. Like-named read-outs stand apart in the source and are kept apart here.

Target: T1, PfPanK1 (Plasmodium falciparum, UniProt Q8ILP4)
T1 sequence (Q8ILP4 1-519): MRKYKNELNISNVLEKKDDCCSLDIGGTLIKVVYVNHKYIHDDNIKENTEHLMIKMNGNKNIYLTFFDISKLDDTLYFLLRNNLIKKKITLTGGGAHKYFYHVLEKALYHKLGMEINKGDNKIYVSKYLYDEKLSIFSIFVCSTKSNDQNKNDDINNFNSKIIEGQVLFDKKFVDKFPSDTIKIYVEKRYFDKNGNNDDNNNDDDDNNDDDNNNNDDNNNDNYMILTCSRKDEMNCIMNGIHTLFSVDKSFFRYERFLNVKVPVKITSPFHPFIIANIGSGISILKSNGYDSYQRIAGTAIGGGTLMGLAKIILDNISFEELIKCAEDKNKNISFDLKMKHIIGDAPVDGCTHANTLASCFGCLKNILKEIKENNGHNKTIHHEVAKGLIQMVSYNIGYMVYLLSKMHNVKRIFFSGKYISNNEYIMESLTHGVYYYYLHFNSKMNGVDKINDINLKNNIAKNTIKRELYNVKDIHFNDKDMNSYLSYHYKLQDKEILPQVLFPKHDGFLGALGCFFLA
Assay type: biochemical

[1] = substrate pair pantetheine and ATP
[2] = substrate pair pantetheine and ATP, 120 µM ATP or 100 µM pantetheine, 37°C
[3] = substrate pair pantothenate and ATP
[4] = pantetheine as substrate, 100 μM ATP, pH 8.4, 37°C
[5] = metal ion 5 mM, substrate pantetheine, relative to MgCl2, pH 8.4, 37°C
[6] = metal ion 5 mM, substrate pantothenate, relative to MgCl2, pH 8.4, 37°C

## Nc1ncnc2c1ncn2[C@@H]1O[C@H](COP(=O)(O)OP(=O)(O)OP(=O)(O)O)[C@@H](O)[C@H]1O [ATP]
  K m: 59.3 ± 7.9 µM
pH 8.4
  Relative activity (%) Pantothenate: 100%
Phosphoryl donor (NTP) 100 µM, substrate pantetheine, relative to ATP, pH 8.4, 37°C
  Relative activity (%) Pantetheine: 100%
[1]
  V max: 18.3 ± 3.0 µmol/min/mg
  k cat: 20.55 ± 0.9 s⁻¹
  k cat/K m: 26.6 ± 6.3 min^-1µM^-1
[2]
  K m: 43.4 ± 3.3 µM and 43.4 ± 3.4 µM
[3]
  V max: 15.9 ± 2.5 µmol/min/mg
  k cat: 16.1 ± 1.72 s⁻¹
  k cat/K m: 16.1 ± 1.0 min^-1µM^-1

## CC(=O)SCCNC(=O)CCNC(=O)[C@H](O)C(C)(C)COP(=O)(O)OP(=O)(O)OC[C@H]1O[C@@H](n2cnc3c(N)ncnc32)[C@H](O)[C@@H]1OP(=O)(O)O [Acetyl CoA]
[4]
  Effect on PfPanK1 activity: did not affect PfPanK1 activity
Pantothenate as substrate
  IC50: > 1000 µM

## Nc1ccn([C@@H]2O[C@H](COP(=O)(O)OP(=O)(O)OP(=O)(O)O)[C@@H](O)[C@H]2O)c(=O)n1 [CTP]
pH 8.4
  Relative activity (%) Pantetheine: 11.3 ± 0.6%
  Relative activity (%) Pantothenate: 28.1 ± 2.8%

## [Ca+2].[Cl-].[Cl-] [CaCl2]
[5]
  Relative activity (%) Pantetheine: 30.5 ± 1.6%
[6]
  Relative activity (%) Pantothenate: 39.9 ± 4.7%

## CC(C)(COP(=O)(O)OP(=O)(O)OC[C@H]1O[C@@H](n2cnc3c(N)ncnc32)[C@H](O)[C@@H]1OP(=O)(O)O)[C@@H](O)C(=O)NCCC(=O)NCCS [CoA, Coenzyme A]
pH 8.4
  Effect on PfPanK1 activity: inhibited
[4]
  Effect on PfPanK1 activity: inhibited

## [Cl-].[Cl-].[Co+2] [CoCl2]
pH 8.4, 37°C
  Relative activity (%) Pantetheine: 22.3 ± 1.0%
  Relative activity (%) Pantothenate: 25.8 ± 1.9%

## [Cl][Cu][Cl] [CuCl2]
[5]
  Relative activity (%) Pantetheine: 8.5 ± 1.3%
[6]
  Relative activity (%) Pantothenate: 16.4 ± 1.5%

## [Cl][Fe][Cl] [FeCl2]
[5]
  Relative activity (%) Pantetheine: 58.3 ± 3.3%
Metal ion 5 mM, substrate pantetheine, relative to MgCl2, pH 8.4, 37°C, listed as Ferrous cation
  Relative activity (%) Pantetheine: approximately 60%
[6]
  Relative activity (%) Pantothenate: 104.7 ± 14.9%

## Nc1nc2c(ncn2[C@@H]2O[C@H](COP(=O)(O)OP(=O)(O)OP(=O)(O)O)[C@@H](O)[C@H]2O)c(=O)[nH]1 [GTP]
pH 8.4
  Relative activity (%) Pantetheine: 106.5 ± 4.4%
  Relative activity (%) Pantothenate: 107.6 ± 8.1%

## [Cl-].[K+] [KCl]
[5]
  Relative activity (%) Pantetheine: 33.6 ± 3.4%
[6]
  Relative activity (%) Pantothenate: 29.7 ± 2.3%

## [Cl-].[Li+] [LiCl2]
[5]
  Relative activity (%) Pantetheine: 32.6 ± 4.1%
[6]
  Relative activity (%) Pantothenate: 37.9 ± 9.6%

## [Cl-].[Cl-].[Mg+2] [MgCl2]
[5]
  Relative activity (%) Pantetheine: 100%
[6]
  Relative activity (%) Pantothenate: 100%

## [Cl][Mn][Cl] [MnCl2]
[5]
  Relative activity (%) Pantetheine: 55.3 ± 0.1%
[6]
  Relative activity (%) Pantothenate: 41.7 ± 8.4%

## [Cl-].[Na+] [NaCl]
pH 8.4
  Relative activity (%) Pantetheine: 33.1 ± 6.2%
  Relative activity (%) Pantothenate: 41.4 ± 5.3%

## [Cl][Ni][Cl] [NiCl2]
[5]
  Relative activity (%) Pantetheine: 41.4 ± 3.4%
[6]
  Relative activity (%) Pantothenate: 49.0 ± 5.5%

## CC(C)(CO)[C@@H](O)C(=O)NCCC(=O)NCCS [Pantetheine]
[1]
  V max: 19.6 ± 1.2 µmol/min/mg
  k cat: 19.52 ± 0.417 s⁻¹
  k cat/K m: 25.6 ± 0.7 min^-1µM^-1
[2]
  K m: 45.7 ± 6.9 µM

## CC(C)(CO)[C@@H](O)C(=O)NCCC(=O)O [Pantothenate]
  K m: 44.6 ± 5.6 µM
  k cat/K m: 19.1 ± 1.0 min^-1µM^-1
[3]
  V max: 14.2 ± 0.71 µmol/min/mg
  k cat: 14.2 ± 1.28 s⁻¹

## Cc1cn([C@H]2C[C@H](O)[C@@H](COP(=O)(O)OP(=O)(O)OP(=O)(O)O)O2)c(=O)[nH]c1=O [TTP]
pH 8.4
  Relative activity (%) Pantetheine: 0.0 ± 0.0%
  Relative activity (%) Pantothenate: 13.1 ± 1.0%

## O=c1ccn([C@@H]2O[C@H](COP(=O)(O)OP(=O)(O)OP(=O)(O)O)[C@@H](O)[C@H]2O)c(=O)[nH]1 [UTP]
pH 8.4
  Relative activity (%) Pantetheine: 23.8 ± 2.3%
  Relative activity (%) Pantothenate: 64.1 ± 1.0%

## [Cl-].[Cl-].[Zn+2] [ZnCl2]
[5]
  Relative activity (%) Pantetheine: 29.0 ± 0.6%
[6]
  Relative activity (%) Pantothenate: 35.6 ± 5.6%

## Nc1ncnc2c1ncn2[C@H]1C[C@H](O)[C@@H](COP(=O)(O)OP(=O)(O)OP(=O)(O)O)O1 [dATP]
pH 8.4
  Relative activity (%) Pantetheine: 8.5 ± 2.7%
  Relative activity (%) Pantothenate: 9.0 ± 2.2%
